Source: PubChem BioAssay (NCI)
Where “and” joins values, the source holds several entries; their conditions need not be identical. Identical values can stand only once.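 Dose response: 5 concentrations. Exposure: 48 h. Format: 96-well plates. Endpoint: linear interpolation; highest concentration if not reached. The concentration for 50% growth inhibition is given as GI50. The concentration for full growth arrest is given as TGI.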

Columns and labels:
Test in all cases: NCI anticancer screen, dose series, 48 h
786-0 renal = system: 786-0 renal
A549 NSCLC = system: A549 NSCLC
HL-60(TB) leukemia = system: HL-60(TB) leukemia
HOP-62 NSCLC = system: HOP-62 NSCLC
NCI-H522 lung = system: NCI-H522 lung
OVCAR-3 ovarian = system: OVCAR-3 ovarian
OVCAR-4 ovarian = system: OVCAR-4 ovarian
SF-268 CNS = system: SF-268 CNS
SNB-19 CNS = system: SNB-19 CNS
SNB-75 CNS = system: SNB-75 CNS

Row | Structure (SMILES) | GI50 (786-0 renal) | TGI (786-0 renal) | GI50 (A549 NSCLC) | TGI (A549 NSCLC) | GI50 (HL-60(TB) leukemia) | TGI (HL-60(TB) leukemia) | GI50 (HOP-62 NSCLC) | TGI (HOP-62 NSCLC) | GI50 (NCI-H522 lung) | TGI (NCI-H522 lung) | GI50 (OVCAR-3 ovarian) | TGI (OVCAR-3 ovarian) | GI50 (OVCAR-4 ovarian) | TGI (OVCAR-4 ovarian) | GI50 (SF-268 CNS) | TGI (SF-268 CNS) | GI50 (SNB-19 CNS) | TGI (SNB-19 CNS) | GI50 (SNB-75 CNS) | TGI (SNB-75 CNS)
1 | CCN(CC)CCOc1ccc(/C=C2\CC3C4CC=C5C[C@@H](O)CC[C@]5(C)C4CC[C@]3(C)C2=O)cc1OC (some centres undefined) | 1.92 µM | 3.66 µM | 11.6 µM | 26.1 µM | 10.1 µM | 22.3 µM | 3.94 µM | 10.9 µM | 3.57 µM | 14 µM | 1.71 µM | 9.04 µM | 18.8 µM | 45.9 µM | 7.39 µM | > 57.3 µM | 4.67 µM | > 64 µM | 15.6 µM | 34.8 µM
2 | Cc1ccc(-c2nc3ccc([N+](=O)[O-])cc3[nH]2)cc1 |  | > 100 µM |  | > 100 µM |  | > 100 µM |  | > 100 µM |  | > 100 µM |  | > 100 µM |  | > 100 µM |  | > 100 µM |  | > 100 µM |  | > 100 µM
3 | CS(=O)(=O)CCCn1c(=O)c(Oc2ccc(F)cc2F)cc2cnc(NC3CCOCC3)nc21 | > 25 µM | > 25 µM | > 25 µM | > 25 µM | > 25 µM | > 25 µM | > 25 µM | > 25 µM | > 25 µM | > 25 µM | > 25 µM | > 25 µM | > 25 µM | > 25 µM | > 25 µM | > 25 µM | > 25 µM | > 25 µM | > 25 µM | > 25 µM
4 | COC1C(O)=C2C(=O)O/C(C)=C/C=C/C=C/C=C\CC(c3ccccc3)NC(=O)\C=C/C=C\C=C\C=C\[C@@]2(C)[C@@H]1O (some centres undefined) |  | 0.148 µM |  | 0.0445 µM |  | 0.0421 µM |  | 0.146 µM |  | < 0.0285 µM |  | 0.271 µM |  | 1.85 µM |  | 0.318 µM |  | 0.141 µM |  | 0.0503 µM
5 | CC(=O)c1cc2c(o1)C(=O)c1ccccc1C2=O | 0.381 µM and 1.21 µM | 1.02 µM and 2.71 µM | 0.217 µM and 0.208 µM | 0.453 µM and 0.434 µM | 0.241 µM and 0.271 µM | 0.641 µM and 0.773 µM | 0.163 µM and 0.186 µM | 0.329 µM and 0.35 µM | 0.19 µM and 0.194 µM | 0.413 µM and 0.495 µM | 0.218 µM and 0.225 µM | 0.507 µM and 0.529 µM | 0.255 µM and 0.377 µM | 0.767 µM and 1.48 µM | 0.28 µM and 0.513 µM | 0.959 µM and 2.3 µM | 0.222 µM and 0.267 µM | 0.508 µM and 0.795 µM | 0.181 µM and 0.195 µM | 0.328 µM and 0.376 µM
6 | Cc1csc(Nc2nc(-c3cccc(Br)c3)nc(C(Cl)(Cl)Cl)n2)n1 | 7.75 µM | > 100 µM | 1.61 µM | 7.28 µM | 1.04 µM | 3.96 µM | 2.21 µM | > 28.7 µM | > 100 µM | > 100 µM | 1.11 µM | 3.24 µM | > 100 µM | > 100 µM | 4.65 µM | > 100 µM | 2.87 µM | > 100 µM | 1.36 µM | > 27.9 µM
7 | O=c1[nH]c(=O)n(C2CC(O)C(CO)O2)cc1CO (centres undefined) | 5.33 µM | > 100 µM | > 100 µM | > 100 µM | > 100 µM | > 100 µM | > 100 µM | > 100 µM | > 100 µM | > 100 µM | > 100 µM | > 100 µM | > 100 µM | > 100 µM | > 100 µM | > 100 µM | 2.9 µM | > 100 µM | > 100 µM | > 100 µM
8 | CC(CC(=O)O)C(C(=O)O)C(=O)O (centres undefined) |  | > 100 µM |  | > 100 µM |  | > 100 µM |  | > 100 µM |  | > 100 µM |  | > 100 µM |  | > 100 µM |  | > 100 µM |  | > 100 µM |  | > 100 µM
9 | N=c1ccn2c(n1)OC1C(O)C(CO)OC12 (centres undefined) | 0.652 µM | > 1000 µM | 0.337 µM | > 1000 µM | 0.763 µM | 69.7 µM and > 23.6 µM | 0.326 µM | 130 µM | > 100 µM | > 1000 µM | 163 µM and 99.6 µM | > 1000 µM | > 100 µM | > 1000 µM | 2.41 µM | > 619 µM |  | > 480 µM | > 100 µM | > 1000 µM
10 | O=c1[nH]cc(COCCO)c(=O)[nH]1 |  | > 100 µM |  | > 100 µM |  | > 100 µM |  | > 100 µM |  | > 100 µM |  | > 100 µM |  | > 100 µM |  | > 100 µM |  | > 100 µM |  | > 100 µM
11 | N#C/C=C(\c1ccc([N+](=O)[O-])cc1)n1nnc2cc(Cl)c(Cl)cc21 | 2.09 µM | 3.58 µM | 3.45 µM | 13.6 µM | 2.71 µM | 41.1 µM | 1.99 µM | 5.04 µM | 1.72 µM | 3.57 µM | 1.88 µM | 3.91 µM | 1.54 µM | 2.89 µM | 3.58 µM | 33.5 µM | 2.37 µM | 7.14 µM | 2.13 µM | 8.11 µM
12 | Cc1cn2c(/C=C3\C(=O)Nc4ccc(O)cc43)c(-c3ccc(Cl)cc3)nc2s1 | 16.6 µM | 32.7 µM | 19.1 µM | > 100 µM | 14.4 µM | 40.7 µM | 15.3 µM | 30.3 µM | 11.3 µM | 57.9 µM | 16.9 µM | 38.3 µM | 7.31 µM | 27.8 µM | 15.2 µM | 54.5 µM | 15.2 µM | 39.1 µM | 6.27 µM | 23.7 µM
